{
  "source": "patent US11149267B2",
  "about": "“Functional genomics using CRISPR-Cas systems, compositions, methods, screens and applications thereof” (The Broad Institute, Inc., priority 2013, dated 2021)",
  "key": {"[1]": {"assay": "Dosing of screening agents, CellTiter-Glo cell viability assay", "type": "cell-based", "details": "human, WT KBM7 cells", "description": "(§1) Dosing of screening agents: To determine the appropriate dose of 6-TG and etoposide for screening in KBM7 and HL60 cells, cells were seeded in 96-well tissue culture plates at 4000 cells/well in 200 μL of media and were treated in triplicate with varying concentrations of 6-TG and etoposide. A CellTiter-Glo cell viability assay was performed after 4 days to assess drug toxicity. Concentrations at which the viability of WT KBM7 and HL60 cells fell below 5% were chosen.\nPooled screening: In all screens, 90 million target cells were transduced with viral sub pools and selected with blasticidin 24 hours after infection for 3 days. For the 6-TG screen, Cas9-KBM7 cells were cultured in media containing 400 nM 6-TG. For screens with etoposide, Cas9-KBM7 and Cas9-HL60 cells were cultured in media containing 130 nM and 200 nM of etoposide, respectively. Cultures of untreated Cas9-KBM7 and Cas9-HL60 cells were also maintained in parallel. All cells were passaged every 3 days, and after 12 days, cells were harvested for genomic DNA extraction. In negative selection screens, 10 million cells were harvested for genomic DNA extraction 24 hours after infection. The remaining cells were maintained for 12 doublings, before being harvested for genomic DNA extraction."}, "HL60 cells": {"system": "HL60 cells", "assay": "CellTiter-Glo cell viability assay in HL60 cells", "type": "cell-based, human", "details": "versus parental or sgAAVS1-modified HL60 cells; viability by cellular ATP", "description": "(§2) Viability assay: Cells were seeded in 96-well tissue culture plates at 4000 cells/well in 200 μL of media under various treatment conditions. After 3 days, 35 μL of CellTiter-Glo reagent (Promega) was added to each well, mixed for 5 minutes, and the luminescence was read on the SpectraMax M5 Luminometer (Molecular Devices). All experiments were performed in triplicate.\nas §1\n(§3) Pooled screening: In all screens, 90 million target cells were transduced with viral sub pools and selected with blasticidin 24 hours after infection for 3 days. For the 6-TG screen, Cas9-KBM7 cells were cultured in media containing 400 nM 6-TG. For screens with etoposide, Cas9-KBM7 and Cas9-HL60 cells were cultured in media containing 130 nM and 200 nM of etoposide, respectively. Cultures of untreated Cas9-KBM7 and Cas9-HL60 cells were also maintained in parallel. […]"}, "[2]": {"assay": "CellTiter-Glo cell viability assay in HL60 cells", "type": "cell-based, human", "details": "human, WT HL60 cells; at the concentration chosen for screening (200 nM etoposide); 4 days", "description": "as §2, §1, §3"}},
  "data": [
    {"compound": "Nc1nc2nc[nH]c2c(=S)[nH]1", "note": "[6-TG, 6-thioguanine]", "values": [
      {"measurement": "viability at 4 days, 400 nM", "setting": "[1]; at the concentration chosen for screening (400 nM 6-TG)", "result": "< 5", "unit": "%"}
    ]},
    {"compound": "COc1cc([C@@H]2c3cc4c(cc3[C@@H](O[C@@H]3O[C@@H]5CO[C@@H](C)O[C@H]5[C@H](O)[C@H]3O)[C@H]3COC(=O)[C@H]23)OCO4)cc(OC)c1O", "note": "[etoposide]", "values": [
      {"measurement": "resistance to etoposide of isogenic HL60 lines with sgRNAs against TOP2A and CDK6", "setting": "HL60 cells", "result": "much more resistant"},
      {"measurement": "viability at 4 days, 200 nM", "setting": "[2]", "result": "< 5", "unit": "%"},
      {"measurement": "viability at 4 days, 130 nM", "setting": "[1]; at the concentration chosen for screening (130 nM etoposide)", "result": "< 5", "unit": "%"}
    ]}
  ]
}
